Consider six molecules from paper PMC7476565 (Antiviral Research, 2020).

Each structure is given as a SMILES string.

Broadly, the EC50 is the concentration at which the effect is half-maximal. A word on the Ki: it is a dissociation constant, usually derived from enzyme kinetics or from competition with a known ligand. Low readings indicate higher affinity, high ones lower affinity.

Data set [1] has as its system FIPV. As to the kind of experiment: microbe, parasite or virus in culture. The settings on record: for EC50: Alphacoronavirus 1, CRFK, 2 h, read-out: Prophylaxis treatment EC50, IPMA; for inhibition of the cytopathic effect (in words): FIPV in CRFK cells, all examined conditions. Type of data set: cell-based, feline infectious peritonitis virus (FIPV) strain 79-1146.
Data set [2] deals with FIPV. The settings on record: CRFK cells; CPE still observed; ref Weiss and Oostrom-Ram, 1989; cited from earlier work.
Data set [3] is described as follows: In vitro cytotoxicity MTS assay on CRFK cells. Type of data set: cell-based, feline. The settings on record: cat, 50% cytotoxic concentration CC50, MTS assay.
Data set [4] relates to CRFK cells. As to the kind of experiment: In vitro cytotoxicity MTS assay on CRFK cells. Type of data set: cell-based, feline. The following applies: read-out: 50% cytotoxic concentration CC50, MTS assay. For orientation: Tetrazolium assays rely on reduction of a dye to a coloured formazan, in cell work by metabolically active cells.
For data set [5], the target named is FIPV 3CL^pro (Feline coronavirus, UniProt Q98VG9). Kind of data set: FRET protease inhibition assay, FIPV 3CLpro. It is filed as biochemical, feline infectious peritonitis virus (FIPV) strain 79-1146.
Chain of FIPV 3CL^pro (Q98VG9 2904-3205 limits assumed): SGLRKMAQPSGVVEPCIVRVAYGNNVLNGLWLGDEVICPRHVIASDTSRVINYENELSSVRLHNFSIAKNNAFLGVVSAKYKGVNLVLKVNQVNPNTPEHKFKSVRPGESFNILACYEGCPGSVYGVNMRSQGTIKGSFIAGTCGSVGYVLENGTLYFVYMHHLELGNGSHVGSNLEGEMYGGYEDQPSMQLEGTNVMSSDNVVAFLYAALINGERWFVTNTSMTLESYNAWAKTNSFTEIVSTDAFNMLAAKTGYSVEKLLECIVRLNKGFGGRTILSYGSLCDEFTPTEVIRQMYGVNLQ
For data set [6], the system named is FIPV. As to the kind of experiment: FIPV RNA quantification by RT-qPCR in CRFK cells. Type of data set: cell-based, feline infectious peritonitis virus (FIPV) strain 79-1146. The following applies: with higher concentration.
Data set [7] deals with TGEV. Kind of data set: Antiviral activity against TGEV replication in SK6 cells.

For the molecule `NC(=O)c1ncn([C@@H]2O[C@H](CO)[C@@H](O)[C@H]2O)n1` [Ribavirin, reference compound], the EC50 in data set [1] was > 200 µM. In addition, the “Inhibitory dose for FIPV” value in data set [2] was 50 to 100 µg/mL. The CC50 in data set [3] was > 500 µM.

Take `CC(C)C[C@H](NC(=O)OCc1ccccc1)C(=O)N[C@@H](CC1CCNC1=O)C(O)S(=O)(=O)O` (stereo partly drawn) [GC376, reference compound]: in data set [4], the CC50 is > 200 µM.

As for `N#CC1(C#N)C2C=CC(c3coc4cccc2c34)C1(C#N)C#N` (stereo not drawn) [NSC629301, 3,6-dihydro-3,6-ethanocyclohepta (cd) (1) benzofuran-10,10,11,11-tetracarbonitrile], the affinity in data set [5] corresponds to a Ki of 9.39 ± 0.53 µM. Further, in data set [1], the EC50 stood at 6.11 ± 1.9 µM and the “inhibition of the cytopathic effect (in words)” value was “strongly inhibit”. In addition, in data set [4], the CC50 was found to be 23.2 ± 5.19 µM. Further, in data set [3], the CC50 turned out to be 28.1 ± 5.19 µM. In addition, the “copy numbers of FIPV RNAs / FIPV replication (RT-qPCR)” value in data set [6] is reported as “reduced replication”.

In turn, `O=C(C=Cc1ccc2ccccc2n1)c1cc(Cl)ccc1O` [NSC71097, 1-(5-chloro-2-hydroxyphenyl)-3-(2-quinolinyl)-2-propen-1-one] came in with a Ki in data set [5] of 15.2 ± 1.76 µM. For the same molecule, in data set [1], the EC50 is 1.99 ± 0.3 µM and the “inhibition of the cytopathic effect (in words)” value was “strongly inhibit”. The same molecule returned a CC50 in data set [3] of 68.5 ± 4.82 µM. Also, the “copy numbers of FIPV RNAs / FIPV replication (RT-qPCR)” value in data set [6] is reported as “reduced replication”.

In data set [5], `O=C(Nc1ccc(F)cc1)Oc1ccc[nH]c1=O` [NSC282187, Carbamic acid, (4-fluorophenyl)-, 1,2-dihydro-2-oxo-3-pyridinyl ester] gave a Ki of 2.04 ± 0.08 µM. Also, the EC50 in data set [1] was > 200 µM. The “antiviral effect in TGEV cell-based assay (in words)” value in data set [7] is reported as “did not show an active antiviral effect”. In data set [3], this molecule showed a CC50 of 510.7 ± 0.13 µM.

With `Cc1cccc(C)c1OCC(=O)N[C@@H](Cc1ccccc1)[C@@H](O)C[C@H](Cc1ccccc1)NC(=O)[C@H](C(C)C)N1CCCNC1=O` [Lopinavir, reference compound], the EC50 in data set [1] is 33.7 ± 1.53 µM. Further, the CC50 in data set [3] was > 100 µM.
